From patent publication US12077503B2, “Substituted cyclic amides and their use as herbicides” (FMC CORPORATION, priority 2015, dated 2024)

Experiments:
Format in all cases: in vivo
[1] = tested on: ivy-leaved morning glory (Ipomoea hederacea); assay: Test G Post-Emergence Protocol; conditions: Ipomoea, post-emergence, 312 h, read-out: Morningglory, Ivy-leaved damage rating; for pest or weed control at 15.625 g/ha: 15.625 g ai/ha, evaluated after 13 days (100=total damage to plant; 0=no damage to plant); for pest or weed control at 62.5 g/ha: 62.5 g ai/ha; for pest or weed control at 62.5 g/ha / pest or weed control at 250 g/ha: evaluated after 13 days, 100=total damage to plant, 0=no damage to plant; for pest or weed control at 250 g/ha: 250 g ai/ha
In short: (§1)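 Foliar application was made 8 days after sowing, using an aqueous spray of the active in acetone/water (50:50) with 0.5% Tween 20, at doses of 15.625, 62.5 or 250 g/ha. Injury was assessed 13 days later, where 100 meant the plant was fully damaged.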

[2] = tested on: barnyardgrass (Echinochloa crus-galli); assay: Test G Post-Emergence Protocol; conditions: Echinochloa crus-galli, post-emergence, 312 h, read-out: Barnyardgrass damage rating; for pest or weed control at 15.625 g/ha: 15.625 g ai/ha, evaluated after 13 days (100=total damage to plant; 0=no damage to plant); for pest or weed control at 62.5 g/ha: 62.5 g ai/ha; for pest or weed control at 62.5 g/ha / pest or weed control at 250 g/ha: evaluated after 13 days, 100=total damage to plant, 0=no damage to plant; for pest or weed control at 250 g/ha: 250 g ai/ha
In short: as §1

[3] = tested on: giant foxtail (Setaria faberi); assay: Test G Post-Emergence Protocol; conditions: Setaria faberi, post-emergence, 312 h, read-out: Foxtail, Giant damage rating; for pest or weed control at 15.625 g/ha: 15.625 g ai/ha, evaluated after 13 days (100=total damage to plant; 0=no damage to plant); for pest or weed control at 62.5 g/ha: 62.5 g ai/ha; for pest or weed control at 62.5 g/ha / pest or weed control at 250 g/ha: evaluated after 13 days, 100=total damage to plant, 0=no damage to plant; for pest or weed control at 250 g/ha: 250 g ai/ha
In short: as §1

[4] = tested on: corn (Zea mays); assay: Test G Post-Emergence Protocol; conditions: Zea mays, post-emergence, 312 h, read-out: Corn damage rating; for plant injury at 15.625 g/ha: 15.625 g ai/ha, evaluated after 13 days (100=total damage to plant; 0=no damage to plant); for plant injury at 62.5 g/ha: 62.5 g ai/ha; for plant injury at 62.5 g/ha / plant injury at 250 g/ha: evaluated after 13 days, 100=total damage to plant, 0=no damage to plant; for plant injury at 250 g/ha: 250 g ai/ha
In short: as §1

[5] = tested on: velvetleaf (Abutilon theophrasti); assay: Test G Post-Emergence Protocol; conditions: Abutilon theophrasti, post-emergence, 312 h, read-out: Velvetleaf damage rating; for pest or weed control at 15.625 g/ha: 15.625 g ai/ha, evaluated after 13 days (100=total damage to plant; 0=no damage to plant); for pest or weed control at 62.5 g/ha: 62.5 g ai/ha; for pest or weed control at 62.5 g/ha / pest or weed control at 250 g/ha: evaluated after 13 days, 100=total damage to plant, 0=no damage to plant; for pest or weed control at 250 g/ha: 250 g ai/ha
In short: as §1

[6] = tested on: redroot pigweed (Amaranthus retroflexus); assay: Test G Post-Emergence Protocol; conditions: Amaranthus retroflexus, post-emergence, 312 h, read-out: Pigweed, Redroot damage rating; for pest or weed control at 15.625 g/ha: 15.625 g ai/ha, evaluated after 13 days (100=total damage to plant; 0=no damage to plant); for pest or weed control at 62.5 g/ha: 62.5 g ai/ha; for pest or weed control at 62.5 g/ha / pest or weed control at 250 g/ha: evaluated after 13 days, 100=total damage to plant, 0=no damage to plant; for pest or weed control at 250 g/ha: 250 g ai/ha
In short: as §1

[7] = tested on: ivy-leaved morning glory (Ipomoea hederacea); assay: Test G Pre-Emergence Protocol; conditions: Ipomoea, pre-emergence, 312 h, evaluated after 13 days; for pest or weed control at 15.625 g/ha: 15.625 g ai/ha; for pest or weed control at 15.625 g/ha / pest or weed control at 250 g/ha: read-out: Morningglory, Ivy-leaved damage rating (100=total damage to plant; 0=no damage to plant); for pest or weed control at 62.5 g/ha: 62.5 g ai/ha, 100=total damage to plant, 0=no damage to plant, read-out: Morningglory, Ivy-leaved damage rating; for pest or weed control at 250 g/ha: 250 g ai/ha
In short: (§2)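 Pots of seeds in standard soil were grown for one day in a glasshouse (24/16 °C day/night, 14 h light, 65% humidity), then sprayed with compound in acetone/water 50:50 with 0.5% Tween 20 at 15.625, 62.5 or 250 g/ha. Damage was scored after 13 days on a 0 (none) to 100 (total) scale.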

[8] = tested on: barnyardgrass (Echinochloa crus-galli); assay: Test G Pre-Emergence Protocol; conditions: Echinochloa crus-galli, pre-emergence, 312 h, evaluated after 13 days; for pest or weed control at 15.625 g/ha: 15.625 g ai/ha; for pest or weed control at 15.625 g/ha / pest or weed control at 250 g/ha: read-out: Barnyardgrass damage rating (100=total damage to plant; 0=no damage to plant); for pest or weed control at 62.5 g/ha: 62.5 g ai/ha, 100=total damage to plant, 0=no damage to plant, read-out: Barnyardgrass damage rating; for pest or weed control at 250 g/ha: 250 g ai/ha
In short: as §2

[9] = tested on: giant foxtail (Setaria faberi); assay: Test G Pre-Emergence Protocol; conditions: Setaria faberi, pre-emergence, 312 h, evaluated after 13 days; for pest or weed control at 15.625 g/ha: 15.625 g ai/ha; for pest or weed control at 15.625 g/ha / pest or weed control at 250 g/ha: read-out: Foxtail, Giant damage rating (100=total damage to plant; 0=no damage to plant); for pest or weed control at 62.5 g/ha: 62.5 g ai/ha, 100=total damage to plant, 0=no damage to plant, read-out: Foxtail, Giant damage rating; for pest or weed control at 250 g/ha: 250 g ai/ha
In short: as §2

[10] = tested on: corn (Zea mays); assay: Test G Pre-Emergence Protocol; conditions: Zea mays, pre-emergence, 312 h, evaluated after 13 days; for plant injury at 15.625 g/ha: 15.625 g ai/ha; for plant injury at 15.625 g/ha / plant injury at 250 g/ha: read-out: Corn damage rating (100=total damage to plant; 0=no damage to plant); for plant injury at 62.5 g/ha: 62.5 g ai/ha, 100=total damage to plant, 0=no damage to plant, read-out: Corn damage rating; for plant injury at 250 g/ha: 250 g ai/ha
In short: as §2

[11] = tested on: velvetleaf (Abutilon theophrasti); assay: Test G Pre-Emergence Protocol; conditions: Abutilon theophrasti, pre-emergence, 312 h, evaluated after 13 days; for pest or weed control at 15.625 g/ha: 15.625 g ai/ha; for pest or weed control at 15.625 g/ha / pest or weed control at 250 g/ha: read-out: Velvetleaf damage rating (100=total damage to plant; 0=no damage to plant); for pest or weed control at 62.5 g/ha: 62.5 g ai/ha, 100=total damage to plant, 0=no damage to plant, read-out: Velvetleaf damage rating; for pest or weed control at 250 g/ha: 250 g ai/ha
In short: as §2

[12] = tested on: redroot pigweed (Amaranthus retroflexus); assay: Test G Pre-Emergence Protocol; conditions: Amaranthus retroflexus, pre-emergence, 312 h, evaluated after 13 days; for pest or weed control at 15.625 g/ha: 15.625 g ai/ha; for pest or weed control at 15.625 g/ha / pest or weed control at 250 g/ha: read-out: Pigweed, Redroot damage rating (100=total damage to plant; 0=no damage to plant); for pest or weed control at 62.5 g/ha: 62.5 g ai/ha, 100=total damage to plant, 0=no damage to plant, read-out: Pigweed, Redroot damage rating; for pest or weed control at 250 g/ha: 250 g ai/ha
In short: as §2

CN1C[C@H](c2ccc(C(F)(F)F)cc2)[C@@H](C(=O)Nc2ccc[n+]([O-])c2C(F)(F)F)C1=O (racemic) [Compound 1813]
pest or weed control at 15.625 g/ha [1]: 0% | pest or weed control at 62.5 g/ha [1]: 10% | pest or weed control at 250 g/ha [1]: 40% | pest or weed control at 15.625 g/ha [2]: 0% | pest or weed control at 62.5 g/ha [2]: 0% | pest or weed control at 250 g/ha [2]: 0% | pest or weed control at 15.625 g/ha [3]: 0% | pest or weed control at 62.5 g/ha [3]: 0% | pest or weed control at 250 g/ha [3]: 20% | plant injury at 15.625 g/ha [4]: 0% | plant injury at 62.5 g/ha [4]: 0% | plant injury at 250 g/ha [4]: 0% | pest or weed control at 15.625 g/ha [5]: 0% | pest or weed control at 62.5 g/ha [5]: 0% | pest or weed control at 250 g/ha [5]: 10% | pest or weed control at 15.625 g/ha [6]: 0% | pest or weed control at 62.5 g/ha [6]: 0% | pest or weed control at 250 g/ha [6]: 20% | pest or weed control at 15.625 g/ha [7]: 0% | pest or weed control at 62.5 g/ha [7]: 0% | pest or weed control at 250 g/ha [7]: 20% | pest or weed control at 15.625 g/ha [8]: 0% | pest or weed control at 62.5 g/ha [8]: 0% | pest or weed control at 250 g/ha [8]: 10% | pest or weed control at 15.625 g/ha [9]: 0% | pest or weed control at 62.5 g/ha [9]: 10% | pest or weed control at 250 g/ha [9]: 90% | plant injury at 15.625 g/ha [10]: 0% | plant injury at 62.5 g/ha [10]: 0% | plant injury at 250 g/ha [10]: 0% | pest or weed control at 15.625 g/ha [11]: 0% | pest or weed control at 62.5 g/ha [11]: 0% | pest or weed control at 250 g/ha [11]: 30% | pest or weed control at 15.625 g/ha [12]: 0% | pest or weed control at 62.5 g/ha [12]: 0% | pest or weed control at 250 g/ha [12]: 20%

CN1C[C@H](c2ccc(C(F)(F)F)cc2)[C@@H](C(=O)Nc2cccc(F)[n+]2[O-])C1=O (racemic) [Compound 1814]
pest or weed control at 15.625 g/ha [1]: 0% | pest or weed control at 62.5 g/ha [1]: 0% | pest or weed control at 250 g/ha [1]: 0% | pest or weed control at 15.625 g/ha [2]: 0% | pest or weed control at 62.5 g/ha [2]: 0% | pest or weed control at 250 g/ha [2]: 0% | pest or weed control at 15.625 g/ha [3]: 0% | pest or weed control at 62.5 g/ha [3]: 0% | pest or weed control at 250 g/ha [3]: 10% | plant injury at 15.625 g/ha [4]: 0% | plant injury at 62.5 g/ha [4]: 0% | plant injury at 250 g/ha [4]: 0% | pest or weed control at 15.625 g/ha [5]: 0% | pest or weed control at 62.5 g/ha [5]: 0% | pest or weed control at 250 g/ha [5]: 0% | pest or weed control at 15.625 g/ha [6]: 0% | pest or weed control at 62.5 g/ha [6]: 0% | pest or weed control at 250 g/ha [6]: 0% | pest or weed control at 15.625 g/ha [7]: 0% | pest or weed control at 62.5 g/ha [7]: 0% | pest or weed control at 250 g/ha [7]: 0% | pest or weed control at 15.625 g/ha [8]: 0% | pest or weed control at 62.5 g/ha [8]: 0% | pest or weed control at 250 g/ha [8]: 0% | pest or weed control at 15.625 g/ha [9]: 0% | pest or weed control at 62.5 g/ha [9]: 0% | pest or weed control at 250 g/ha [9]: 0% | plant injury at 15.625 g/ha [10]: 0% | plant injury at 62.5 g/ha [10]: 0% | plant injury at 250 g/ha [10]: 0% | pest or weed control at 15.625 g/ha [11]: 0% | pest or weed control at 62.5 g/ha [11]: 0% | pest or weed control at 250 g/ha [11]: 0% | pest or weed control at 15.625 g/ha [12]: 0% | pest or weed control at 62.5 g/ha [12]: 0% | pest or weed control at 250 g/ha [12]: 0%
